Results published in PubChem BioAssay AID296 (DTP/NCI, 2004).
Results filed as inconclusive are left out.

Test system: MX-1 breast xenograft, nude mice, tumor weight T/C
Assay: NCI In Vivo Anticancer Drug Screen. Data for tumor model Human Mammary Carcinoma MX-1 Xenograft (intrarenal inoculation) in NU/NU Swiss (nude) mice
Settings: endpoint: mean tumor weight change, higher = larger tumour
Outline: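 Read-out: treated (T) over vehicle control (C) ratio of survival or tumor size. Dosing in animals carrying the transplanted tumor.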

[1] = dose: 50.0 mg/kg/injection, schedule: Q04DX003 (sc), vehicle: suspension in saline
[2] = dose: 100.0 mg/kg/injection, schedule: Q04DX003 (sc), vehicle: suspension in saline

Cc1c2cc[n+](CCN3CCCCC3)cc2c(C)c2c1[nH]c1ccc(O)cc12
T/C (dose: 25.0 mg/kg/injection, schedule: Q04DX003 (sc), vehicle: suspension in saline): 159 % of control | T/C [1]: 163 % of control | T/C [2]: 159 % of control

Clc1ccc(C2SC=Cc3ccccc32)cc1 (stereo not given)
T/C (dose: 600.0 mg/kg/injection, schedule: Q04DX003 (sc), vehicle: Klucel (hydroxypropylcellulose) (HPC)): 90 % of control | T/C (dose: 1200.0 mg/kg/injection, schedule: Q04DX003 (sc), vehicle: Klucel (hydroxypropylcellulose) (HPC)): 115 % of control

C1CCC(NC2CCCCC2)CC1
T/C (dose: 75.0 mg/kg/injection, schedule: Q04DX003 (ip), vehicle: saline): 119 % of control | T/C (dose: 150.0 mg/kg/injection, schedule: Q04DX003 (ip), vehicle: saline): 174 % of control

C1CN2CN3CCN(CN1C3)C2
T/C (dose: 100.0 mg/kg/injection, schedule: Q01DX010 (sc), vehicle: saline): 114 % of control | T/C (dose: 200.0 mg/kg/injection, schedule: Q01DX010 (sc), vehicle: saline): 97 % of control

CC(=O)N(C)C
T/C (dose: 168.75 mg/kg/injection, schedule: Q04DX003 (sc), vehicle: saline): 81 % of control | T/C (dose: 337.5 mg/kg/injection, schedule: Q04DX003 (sc), vehicle: saline): 100 % of control | T/C (dose: 675.0 mg/kg/injection, schedule: Q04DX003 (sc), vehicle: saline): 85 % of control | T/C (dose: 1350.0 mg/kg/injection, schedule: Q04DX003 (sc), vehicle: saline): 61 % of control

O=C(O)c1c2c(nc3ccccc13)Cc1ccccc1-2
T/C (dose: 25.0 mg/kg/injection, schedule: Q01DX010 (sc), vehicle: water): 108 % of control | T/C (dose: 200.0 mg/kg/injection, schedule: Q01DX010 (sc), vehicle: water): 46 % of control

COC1=CC(=O)C(OC)=C(OC)C1=O
T/C (dose: 37.5 mg/kg/injection, schedule: Q04DX003 (sc), vehicle: saline with Tween-80): 86 % of control | T/C (dose: 150.0 mg/kg/injection, schedule: Q04DX003 (sc), vehicle: saline with Tween-80): 93 % of control

COC(=O)[C@@]12OC[C@]34[C@H]([C@@H](O)[C@@H]1O)[C@@]1(C)CC(=O)C(O)=C(C)[C@@H]1C[C@H]3OC(=O)[C@H](OC(=O)/C=C(\C)C(C)C)[C@@H]24
T/C (dose: 0.25 mg/kg/injection, schedule: Q04DX003 (sc), vehicle: saline + alcohol): 52 % of control | T/C (dose: 0.5 mg/kg/injection, schedule: Q04DX003 (sc), vehicle: saline + alcohol): 158 % of control | T/C (dose: 1.0 mg/kg/injection, schedule: Q04DX003 (sc), vehicle: saline + alcohol): 100 % of control | T/C (dose: 2.0 mg/kg/injection, schedule: Q04DX003 (sc), vehicle: saline + alcohol): 90 % of control

COC(=O)C[C@](O)(CCCC(C)(C)O)C(=O)O[C@@H]1C(OC)=C[C@]23CCCN2CCc2cc4c(cc2[C@H]13)OCO4
T/C (dose: 0.5 mg/kg/injection, schedule: Q01DX010 (sc), vehicle: saline): 177 % of control | T/C (dose: 1.0 mg/kg/injection, schedule: Q01DX010 (sc), vehicle: saline): 110 % of control

c1cc[c]([Sn]([NH]c2ncnc3[nH]cnc23)([NH]c2ncnc3[nH]cnc23)[c]2ccccc2)cc1
T/C (dose: 75.0 mg/kg/injection, schedule: Q04DX003 (sc), vehicle: suspension in saline): 76 % of control | T/C (dose: 150.0 mg/kg/injection, schedule: Q04DX003 (sc), vehicle: suspension in saline): 109 % of control | T/C (dose: 300.0 mg/kg/injection, schedule: Q04DX003 (sc), vehicle: suspension in saline): 111 % of control | T/C (dose: 600.0 mg/kg/injection, schedule: Q04DX003 (sc), vehicle: suspension in saline): 76 % of control

CN(CCN(C)C(=O)CCOS(C)(=O)=O)C(=O)CCOS(C)(=O)=O
T/C (dose: 50.0 mg/kg/injection, schedule: Q04DX003 (sc), vehicle: saline with Tween-80): 41 % of control | T/C [1]: 16 % of control | T/C (dose: 100.0 mg/kg/injection, schedule: Q04DX003 (sc), vehicle: saline with Tween-80): 1 % of control | T/C [2]: -86 % of control | T/C (dose: 200.0 mg/kg/injection, schedule: Q04DX003 (sc), vehicle: saline with Tween-80): -65 % of control | T/C (dose: 200.0 mg/kg/injection, schedule: Q04DX003 (sc), vehicle: suspension in saline): -100 % of control | T/C (dose: 400.0 mg/kg/injection, schedule: Q04DX003 (sc), vehicle: suspension in saline): -100 % of control

Cn1cnc([N+](=O)[O-])c1[Se]c1nc(N)nc2nc[nH]c12
T/C (dose: 50.0 mg/kg/injection, schedule: Q01DX010 (sc), vehicle: water): 71 % of control
